From patent US11307205B2, “Non-radioactive cytotoxicity assays” (University of Southern California, priority 2016, dated 2022)

Legend:
BCBL-1-pLenti-GLuc cells = test: Matador assay, drug induced cytotoxicity, BCBL-1; details: 96 hours, different doses
Experimental: (§2) The cell pellets were lysed in 1× Renilla Luciferase Assay Lysis Buffer by diluting one volume of 5× Renilla Luciferase Assay Lysis Buffer (Promega, Cat #E2820) into four volumes of distilled water. GLuc activity was measured in the cellular supernatants and cell lysates fractions separately in triplicate by addition of 0.25× coelentrazine assay buffer (15 μl of assay buffer added to 15 μl of sample in a 384 well plate) to each fraction. For each sample, the average GLuc activity in the cellular supernatant was divided by the average GLuc activity in the cell lysates to normalize for difference in the number of GLuc expressing cells.

BC-3-pLenti-GLuc cells = test: Matador assay, drug induced cytotoxicity, BC-3; assay type: cell-based; details: 96 hours, different doses
Experimental: as §2

Jurkat-GLuc cells = test: Matador assay, antibody drug conjugate induced cell death, Jurkat; assay type: cell-based; details: 5 days of drug treatment
Experimental: (§1) We next used the Matador cytotoxicity assay to measure cell death induced by CD30-directed antibody-drug-conjugate (ADC), Brentuximab vedotin (Adcetris). […] Similarly, Jurkat cells were transduced with MSCVhygro-GLuc-HA-G02 (SEQ ID NO: 95) retroviral vector and selected with hygromycin to generate Jurkat-GLuc stable cell line. These GLuc-expressing target cells were plated at a concentration of 10×10^5 cells/well in a flat-bottom 24 well plate in 500 μl of phenol-red-free RPMI medium with 10% FBS and treated with the indicated dose of Brentuximab vedotin. After 5 days of drug treatment, the cells were mixed well, collected in 1.5 ml microfuge tubes and divided into 3 groups of 166 μl each. For the first group, the cells with cell supernatant were directly assayed for luciferase activity by plating 30 μl of cells/well in a white 384 well plate in triplicate. For the second group, 166 μl of cells were centrifuged and only cell supernatants were collected in a new tube and plated at 30 μl/well in triplicate in a white 384 well plate. […] The luciferase activity was precisely measured by BioTek synergy plate reader by injecting 0.5× CTZ assay buffer containing native coeloentrazine into each well of the 384 well plate in a well mode. […]

L428-GLuc cells = test: Matador assay, antibody drug conjugate induced cell death, L428; assay type: cell-based; details: 5 days of drug treatment
Experimental: as §1

KMH2-GLuc cells = test: Matador assay, antibody drug conjugate induced cell death, KMH2; assay type: cell-based; details: 5 days of drug treatment
Experimental: as §1

[1] = system: CAR CD8SP2-CD19MM-(vL-vH)-Myc-BBz-T2A-PAC T cell induced death of RAJI cells stably expressing GLuc; test: Matador assay, drug modulation of CAR-T cell induced lysis of RAJI-GLuc cells; assay type: cell-based, Human; details: E:T 5:1, 4 hours co-culture; Dasatinib 50 nM and 100 nM
Experimental: Human peripheral blood T cells isolated using CD3 magnetic beads were infected with lentiviruses expressing the CAR construct CD8SP2-CD19MM-(vL-vH)-Myc-BBz-T2A-PAC [SEQ ID NO: 82] targeting CD19 and selected with puromycin. CAR-T cells were pre-incubated with the indicated concentrations of Dasatinib and Imatinib for approximately 30 min at 37° C. The drug-treated and untreated T cells were plated in a white 384-well plate. […] Dasatinib (Das) and Imatinib (Imat) were added to the wells to maintain the final concentrations as indicated. […] Therefore, the assay can be used to screen for and identify candidate compounds that modulate the activity of cytotoxic cells, such as cytotoxic T cells, NK cells, CAR-T cells and T cells expressing engineered TCRs.

[2] = system: RAJI cells expressing GLuc; test: Antibody-dependent cellular cytotoxicity (ADCC) Matador assay; assay type: cell-based
Experimental: Antibody-dependent cellular cytotoxicity (ADCC) assay was performed performed essentially as described earlier (Teeling, French et al. 2004). To determine the cytotoxicity of Rituximab monoclonal antibody, the cell death was assessed using Matador assay. Peripheral Blood Mononuclear Cells (PBMC) were isolated by Ficoll-Hypaque gradient centrifugation from buffy coat cells obtained from a de-identified healthy donor as a source of natural effector. […] The cells were either left untreated, or treated with 1 μg/ml or 10 μg/ml of Rituximab. The plates were incubated at 37° C. for 4 hours in a CO2 incubator. After incubation for 4 hours, the cell death was assessed by luciferase assay by addition of CTZ assay buffer containing native coelentrazine to the wells as described earlier.

[3] = Stability of luciferases in cell culture supernatants at 37° C. under Matador assay conditions; assay type: physicochemical; details: for time for which luminescence was stable: cell culture supernatants of K562 cells co-cultured with NK92MI
Experimental: Post-incubation, the cell-free supernatants were divided into 7 different tubes and frozen immediately at −80° C. The tubes were then incubated at 37° C. for 0, 0.5, 1, 2, 4, 6, and 24 hours.
Although thermostable luciferases are stable at 37° C., it was not obvious whether thermostability is the only criteria for stability of a reporter under the conditions used in the cytotoxicity assays. Thus, a thermostable luciferase could be degraded under the culture conditions of the cytotoxicity assay due to the activity of proteases that are present in the serum or are released during the process of cell death. Therefore, to examine whether thermostable luciferases are suitable for inclusion in the Matador cytotoxicity assay, K562 cells stably expressing LucPPe-146-1H2 mutant were plated in a 6-well plate, treated with media alone (control) or co-cultured with NK92MI at Effector:Target (E:T) ratio of 1:1 for 4 hours. After incubation, cell-free supernatants were transferred into 7 different tubes and frozen immediately at −80° C. The tubes were directly transferred to 37° C. (from −80° C.) and were incubated for indicated time periods (0 to 24 hours). The luminescence was measured by adding D-luciferin containing assay buffer directly to each well in well mode. […] Furthermore, the luminescence signal was stable in the cell culture medium for nearly 4-6 hours.

[4] = Stability of luciferase activity in supernatants after freezing and thawing; assay type: physicochemical; details: supernatants frozen, thawed two weeks later
Description: Two weeks later, the supernatants were thawed and then re-assayed after addition of coeloentrazine.

[5] = cited from earlier work

For `COc1c(C)cnc(Cn2cnc3c(Cl)nc(N)nc32)c1C` [BIIB021], the “GLuc activity in the supernatant normalized to cell lysates” value (BCBL-1-pLenti-GLuc cells) was “significant increase in GLuc activity in the supernatant” and the “GLuc activity in the supernatant normalized to cell lysates” value (BC-3-pLenti-GLuc cells) was “significant increase in GLuc activity in the supernatant”.

With Brentuximab vedotin the “GLuc activity in cell supernatant normalized for GLuc activity in cell lysates” value (Jurkat-GLuc cells) was “significant increase in GLuc activity in cell supernatant”, the “GLuc activity in the supernatant” value (Jurkat-GLuc cells; not normalized) was “increase in GLuc activity in the supernatant” and the “GLuc activity in cell supernatant normalized for GLuc activity in cell lysates” value (L428-GLuc cells) was “significant increase in GLuc activity in cell supernatant”. For the same molecule, the “GLuc activity in the supernatant” value (L428-GLuc cells; not normalized) was “increase in GLuc activity in the supernatant”, the “GLuc activity in cell supernatant normalized for GLuc activity in cell lysates” value (KMH2-GLuc cells) was “significant increase in GLuc activity in cell supernatant” and the “GLuc activity in the supernatant” value (KMH2-GLuc cells; not normalized) was “increase in GLuc activity in the supernatant”.

In the case of `Cc1ccc(NC(=O)c2ccc(CN3CCN(C)CC3)cc2)cc1Nc1nccc(-c2cccnc2)n1` [Imatinib], the “CAR-T cell induced cell death (GLuc activity)” value [1] is reported as “no effect”.

For “rituximab: Rituximab monoclonal antibody, obtained from Genentech”, the luciferase activity ([2]; RAJI cells stably expressing NLuc) was “Essentially similar results”, the “increase in GLuc activity” value ([2]; in the presence of PBMC, 4 hours, vs untreated cells) was “greater than 10 fold” and the luciferase activity ([2]; in the presence of PBMC, 1 μg/ml and 10 μg/ml) was “increase in luciferase activity”. The luciferase activity ([2]; rituximab alone, 1 μg/ml and 10 m/ml, 4 hours, vs untreated cells) was “increase in luciferase activity”.

With `Cc1sc2c(c1C)C(c1ccc(Cl)cc1)=N[C@@H](CC(=O)OC(C)(C)C)c1nnc(C)n1-2` [JQ1] the “GLuc activity in the supernatant normalized to cell lysates” value (BCBL-1-pLenti-GLuc cells) was “significant increase in GLuc activity in the supernatant” and the “GLuc activity in the supernatant normalized to cell lysates” value (BC-3-pLenti-GLuc cells) was “significant increase in GLuc activity in the supernatant”.

B1: LucPPe-146-1H2: thermostable luciferase from Photuris pennsylvanica, SEQ ID NO: 51 (protein)
chain: MADKNILYGPEPFYPLEDGTAGEQMFDALSRYAAIPGCIALTNAHTKENVLYEEFLKLSCRLAESFKKYGLKQNDTIAVCSENSLQFFLPVIASLYLGIIVAPVNDKYIERELIHSLGIVKPRIVFCSKNTFQKVLNVKSKLKSIETIIILDLNEDLGGYQCLNNFISQNSDSNLDVKKFKPYSFNRDDQVASIMFSSGTTGLPKGVMLTHKNIVARFSIAKDPTFGNAINPTSAILTVIPFHHGFGMMTTLGYFTCGFRVVLMHTFEEKLFLQSLQDYKVESTLLVPTLMAFLAKSALVEKYDLSHLKEIASGGAPLSKEIGEMVKKRFKLNFVRQGYGLTETTSAVLITPKGDAKPGSTGKIVPLHAVKVVDPTTGKILGPNEPGELYFKGPMIMKGYYNNEEATKAIIDNDGWLRSGDIAYYDNDGHFYIVDRLKSLIKYKGYQVAPAEIEGILLQHPYIVDAGVTGIPDEAAGELPAAGVVVQTGKYLNEQIVQDYVASQVSTAKWLRGGVKFLDEIPKGSTGKIDRKVLRQMLEKHTNG
modifications: LucPPe-146-1H2
In the case of B1, the “time for which luminescence signal was stable in the cell culture medium” value ([3]; supernatants of K562 LucPPe-146-1H2 cells) is reported as 4 to 6 h.

B2: Mluc7: Metrida longa Luc7 M43L/M110L variant, SEQ ID NO: 34 (protein)
chain: MNPTVNNDVNRGKMPGKKLPLEVLIELEANAFKAGCTRGCLICLSKIKCTAKMKQYIPGRCHDYGGDKKTGQAGIVGAIVDIPEISGFKEMEPLEQFIAQVDLCADCTTGCLKGLANVKCSELLKKWLPDRCASFADKIQKEAHNIKGLAGDR
modifications: MLuc7 (Metrida longa Luc7) M43L/M110L variant
For B2, the “time for which luminescence was stable” value [3] was 24 h.

B3: Renilla Luc: Renilla Luc, SEQ ID NO: 49 (protein)
chain: MASKVYDPEQRKRMITGPQWWARCKQMNVLDSFINYYDSEKHAENAVIFLHGNAASSYLWRHVVPHIEPVARCIIPDLIGMGKSGKSGNGSYRLLDHYKYLTAWFELLNLPKKIIFVGHDWGACLAFHYSYEHQDKIKAIVHAESVVDVIESWDEWPDIEEDIALIKSEEGEKMVLENNFFVETMLPSKIMRKLEPEEFAAYLEPFKEKGEVRRPTLSWPREIPLVKGGKPDVVQIVRNYNAYLRASDDLPKMFIESDPGFFSNAIVEGAKKFPNTEFVKVKGLHFSQEDAPDEMGKYIKSFVERVLKNEQ
modifications: RLuc (Renilla Luc)
In the case of B3, the “luciferase activity after freezing and thawing” value [4] is reported as “no major change”.

B4: TLuc16: TurboLuc16, SEQ ID NO: 33 (protein)
chain: MEAEAERGKLPGKKLPLEVLIELEANARKAGCTRGCLICLSKIKCTAKMKKYIPGRCADYGGDKKTGQAGIVGAIVDIPEISGFKEMEPMEQFIAQVDRCADCTTGCLKGLANVKCSDLLKKWLPGRCATFADKIQSEVDNIKGLAGD
modifications: TLuc (TurboLuc16)
With B4 the “time for which luminescence was stable” value [3] was 24 h.

B5: NLuc: NanoLuc, SEQ ID NO: 32 (protein)
chain: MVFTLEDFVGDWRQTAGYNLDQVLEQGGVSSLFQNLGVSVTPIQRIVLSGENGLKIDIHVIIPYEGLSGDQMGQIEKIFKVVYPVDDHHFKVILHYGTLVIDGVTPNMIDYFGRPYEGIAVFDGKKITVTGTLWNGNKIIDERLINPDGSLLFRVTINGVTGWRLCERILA
modifications: NLuc (NanoLuc)
For B5, the “time for which luminescence was stable” value [3] is listed as 24 h, the “time activity is retained in culture medium” value ([5]; 37° C.) is listed as over 15 h and the “specific activity relative to firefly or Renilla luciferases” value ([5]; configured for glow-type assays) is listed as about 150 fold.
